Test results from patent US9688661B2, “Substituted pyrroles active as kinases inhibitors” (NERVIANO MEDICAL SCIENCES S.R.L., priority 2012, dated 2017).

What was measured:
[1] = test system: JAK2 dependent human megakaryoblastic leukemia cell line SET-2; test: Cell proliferation assay, SET-2; format: cell-based; conditions: SET-2 cells, 72 hours, CellTiter-Glo
[2] = target: TYK2 kinase domain (Homo sapiens (Human), UniProt P29597); test: Biochemical assay for inhibitors of JAK kinase activity, TYK2; conditions: TYK2 kinase domain 3 nM, 31 μM ATP
Chain of TYK2 kinase domain (P29597 833-1187): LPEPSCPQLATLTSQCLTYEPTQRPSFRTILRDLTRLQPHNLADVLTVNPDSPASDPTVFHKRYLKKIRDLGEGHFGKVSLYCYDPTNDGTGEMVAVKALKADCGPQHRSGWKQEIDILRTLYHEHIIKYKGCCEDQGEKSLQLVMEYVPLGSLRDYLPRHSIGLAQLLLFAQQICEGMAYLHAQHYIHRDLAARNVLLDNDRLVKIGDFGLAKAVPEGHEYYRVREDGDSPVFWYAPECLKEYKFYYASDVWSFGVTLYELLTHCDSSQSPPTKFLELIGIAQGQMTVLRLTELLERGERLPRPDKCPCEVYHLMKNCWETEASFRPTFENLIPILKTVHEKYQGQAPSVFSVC
Experimental: (§1) Specific JAK2, JAK1 or JAK3 peptide substrates are trans-phosphorylated by JAK kinases in the presence of ATP traced with 33P-γ-ATP. At the end of the phosphorylation reaction, the unreacted ATP, cold and radioactive, is captured by an excess of dowex ion exchange resin that eventually settles by gravity to the bottom of the reaction plate. The supernatant is subsequently withdrawn and transferred into a counting plate that is then evaluated by β-counting.
(§2) 500 g of wet resin (SIGMA, custom prepared resin DOWEX 1×8 200-400 mesh, 2.5 Kg) are weighed out and diluted 2 to 1 in 150 mM sodium formate, pH 3.00. The resin is allowed to settle down overnight and then the supernatant is discarded. After three washes as above over a couple of days, the resin is allowed to settle and two volumes (with respect to the resin volume) of 150 mM sodium formate buffer are added.
(§3) Kinase buffer was composed of 50 mM HEPES pH 7.5 containing 10 mM MgCl2, 2.5 mM DTT, 10 μM Na3VO4 and 0.2 mg/mL BSA.
(§4) The peptidic substrate was purchased from American Peptide Company (Sunnyvale, Calif.).
(§5) Data are analyzed by Symix Assay Explorer software (Symix Technologies Inc.) that provides sigmoidal fitting algorithm of the 8 points dilutions curves for IC50 determination.

[3] = target: JAK2 kinase domain (Homo sapiens (Human), UniProt O60674); test: Biochemical assay for inhibitors of JAK kinase activity, JAK2; conditions: JAK2 kinase domain 1 nM, 60 μM ATP
Chain of JAK2 kinase domain (O60674 849-1124): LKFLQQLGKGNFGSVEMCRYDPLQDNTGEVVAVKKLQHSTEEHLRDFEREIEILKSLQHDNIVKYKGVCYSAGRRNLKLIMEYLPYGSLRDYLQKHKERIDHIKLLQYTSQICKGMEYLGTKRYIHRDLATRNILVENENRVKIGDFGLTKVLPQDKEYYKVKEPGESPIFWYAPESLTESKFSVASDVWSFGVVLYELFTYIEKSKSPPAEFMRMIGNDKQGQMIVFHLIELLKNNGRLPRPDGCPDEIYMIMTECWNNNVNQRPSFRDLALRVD
Experimental: as §1, §2, §3, §4, §5

[4] = target: JAK1 kinase domain (Homo sapiens (Human), UniProt P23458); test: Biochemical assay for inhibitors of JAK kinase activity, JAK1; conditions: preactivated JAK1 kinase domain 2.5 nM, 100 μM ATP
Chain of JAK1 kinase domain (P23458 861-1152): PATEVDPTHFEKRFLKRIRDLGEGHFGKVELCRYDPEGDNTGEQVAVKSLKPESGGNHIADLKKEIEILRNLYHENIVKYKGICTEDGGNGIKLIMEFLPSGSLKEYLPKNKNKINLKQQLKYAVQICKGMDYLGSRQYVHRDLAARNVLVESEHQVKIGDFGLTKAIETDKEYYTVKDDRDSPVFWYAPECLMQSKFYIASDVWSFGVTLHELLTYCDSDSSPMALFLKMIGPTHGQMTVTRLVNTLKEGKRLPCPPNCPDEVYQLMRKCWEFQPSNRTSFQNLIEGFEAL
Experimental: as §1, §2, §3
Assays were performed with the JAK1 kinase domain (residues 861-1152 of the 1154 amino acid long full-length sequence, accession number P23458 of UniProtKB/Swiss-Prot database).
The JAK1 kinase domain was preactivated with ATP for 1 h at 28° C. in order to obtain a linear kinetic.
as §4, §5

[5] = test system: JAK2 independent human chronic myelogenous leukaemia cell line K562; test: Cell proliferation assay, K562; format: cell-based; conditions: K562 cells, 72 hours, CellTiter-Glo, read-out: IC50 K-562
[6] = test system: IL-2 dependent human T lymphoma cell line DERL-7; test: Cell proliferation assay, DERL-7; format: cell-based; conditions: DERL7; DERL-7 cells, 20 ng/ml human IL-2, 72 hours, CellTiter-Glo
Experimental: the JAK2 dependent human megakaryoblastic leukemia cell line SET-2 (DSMZ, Braunschweig GERMANY), and JAK2 independent human chronic myelogenous leukaemia cell line K562 (ECACC, Wiltshire, UK) were cultured in RPMI-1640 medium-Glutamax (Gibco BRL, Gaithesburg, Md., USA), supplemented with 10% fetal bovine serum (FBS) at 37° C. and 5% CO2. The IL-2 dependent human T lymphoma cell line DERL-7 (DSMZ, Braunschweig GERMANY) was used to test the activity of compounds in cells on JAK1/JAK3 kinases activated by IL-2. The DERL-7 cell lines were cultured in RPMI-1640 medium-Glutamax (Gibco BRL, Gaithesburg, Md., USA), supplemented with 20% FBS and 20 ng/ml of human IL-2 (Sigma-Aldrich, St. Louis, Mo., USA).
Approximately 5×10^3 cells were plated into 384 microtiter plate wells in 50 μL of growth media with different concentrations of inhibitors. The cells were incubated at 37° C. and 5% CO2 for 72 hours, than the plates were processed using CellTiter-Glo assay (Promega, Madison, Wis., USA) following the manufacturer's instruction. Briefly 25 μL/well reagent solution are added to each wells and after 5 minutes shacking micro-plates are read by Envision luminometer (PerkinElmer, Waltham, Mass., USA).
as §5

`CCc1ccc(Cl)cc1-c1[nH]c(-c2cc(NC)ncn2)cc1C(=O)NC` [compd 302, 2-(5-Chloro-2-ethylphenyl)-N-methyl-5-[6-(methylamino)pyrimidin-4-yl]-1H-pyrrole-3-carboxamide] was tested, and the IC50 [1] was 130 nM, the IC50 [2] was 10 nM and the IC50 [3] was 1 nM. The IC50 [4] was 1 nM, the IC50 [5] was 6610 nM and the IC50 [6] was 469 nM.
Compound `CCc1ccc(Cl)cc1-c1cc(-c2ncnc3[nH]ccc23)[nH]c1C(N)=O` [compd 124, 3-(5-Chloro-2-ethylphenyl)-5-(7H-pyrrolo[2,3-d]pyrimidin-4-yl)-1H-pyrrole-2-carboxamide] has an IC50 [1] of 330 nM, an IC50 [2] of 9 nM and an IC50 [3] of 4 nM. For the same compound, the IC50 [4] was 18 nM, the IC50 [5] was 9660 nM and the IC50 [6] was 1070 nM.
Work on `Cc1ccc(Cl)cc1-n1cc(-c2ncnc3c2CCN3)cc1C(N)=O` [compd 234, 1-(5-Chloro-2-methylphenyl)-4-(6,7-dihydro-5H-pyrrolo[2,3-d]pyrimidin-4-yl)-1H-pyrrole-2-carboxamide] yielded an IC50 [1] of 260 nM, an IC50 [2] of 8 nM and an IC50 [3] of 6 nM. The IC50 [4] was 8 nM, the IC50 [5] was over 10000 nM and the IC50 [6] was 208 nM.
`CCc1ccc(Cl)cc1-c1cc(-c2ncnc3[nH]ccc23)[nH]c1C(=O)NC` [compd 130, 3-(5-Chloro-2-ethylphenyl)-N-methyl-5-(7H-pyrrolo[2,3-d]pyrimidin-4-yl)-1H-pyrrole-2-carboxamide] gave an IC50 [1] of 400 nM, an IC50 [2] of 7 nM and an IC50 [3] of 3 nM. The IC50 [4] was 11 nM, the IC50 [5] was over 10000 nM and the IC50 [6] was 1600 nM.
`CCc1ccc(C(F)(F)F)cc1-c1[nH]c(-c2ncnc3[nH]ccc23)cc1C(=O)NC` [compd 323, 2-[2-Ethyl-5-(trifluoromethyl)phenyl]-N-methyl-5-(7H-pyrrolo[2,3-d]pyrimidin-4-yl)-1H-pyrrole-3-carboxamide] showed an IC50 [1] of 220 nM, an IC50 [2] of 22 nM and an IC50 [3] of 3 nM. The IC50 [4] was 6 nM, the IC50 [5] was over 10000 nM and the IC50 [6] was 510 nM.
For `NC(=O)c1cc(-c2ncnc3[nH]ccc23)cn1-c1cc(C(F)(F)F)ccc1Cl` [compd 244, 1-[2-Chloro-5-(trifluoromethyl)phenyl]-4-(7H-pyrrolo[2,3-d]pyrimidin-4-yl)-1H-pyrrole-2-carboxamide], the IC50 [1] was 60 nM, the IC50 [2] was 3 nM and the IC50 [3] was 1 nM. It also gave an IC50 [4] of 4 nM, an IC50 [5] of 7230 nM and an IC50 [6] of 146 nM.
In the case of `CCc1ccc(Cl)cc1-n1cc(-c2ncnc3[nH]ccc23)cc1C#N` [compd 68, 1-(5-Chloro-2-ethylphenyl)-4-(7H-pyrrolo[2,3-d]pyrimidin-4-yl)-1H-pyrrole-2-carbonitrile], the IC50 [1] is reported as 340 nM, the IC50 [2] is reported as 12 nM and the IC50 [3] is reported as 6 nM. It also gave an IC50 [4] of 14 nM, an IC50 [5] of 4130 nM and an IC50 [6] of 332 nM.
Compound `CCc1ccc(Cl)cc1-c1[nH]c(-c2ncnc3[nH]ccc23)cc1C(N)=O` [compd 199, 2-(5-Chloro-2-ethylphenyl)-5-(7H-pyrrolo[2,3-d]pyrimidin-4-yl)-1H-pyrrole-3-carboxamide] has an IC50 [1] of 100 nM, an IC50 [2] of 3 nM and an IC50 [3] of 1 nM. It also gave an IC50 [4] of 7 nM, an IC50 [5] of over 10000 nM and an IC50 [6] of 194 nM.
For `Cc1ccc(Cl)cc1-c1cn(-c2ncnc3[nH]ccc23)cc1C(N)=O` [compd 270, 4-(5-Chloro-2-methylphenyl)-1-(7H-pyrrolo[2,3-d]pyrimidin-4-yl)-1H-pyrrole-3-carboxamide], the IC50 [1] was 550 nM, the IC50 [2] was 43 nM and the IC50 [3] was 17 nM. The IC50 [4] was 85 nM, the IC50 [5] was 1890 nM and the IC50 [6] was 1790 nM.
